Reference: US20210238138A1, “Method for improving nucleation of crystals from solution” (Université Libre de Bruxelles, priority 2018, published 2021)

Assays:
Assay type in all cases: physicochemical
[1] = Cooling crystallisation of acetylsalicylic acid in ethanol/water in capillary tubing; details: 200 mg/mL 50 vol % ethanol/water, residence time 5.3 s, initial 65° C., bath 10° C.
Protocol: Tubing length should also be adapted when no antisolvent is added to the molecule/solvent solution.
The crystallization temperature is controlled by a water bath containing about 5 L of water, temperature is monitored at all times by a thermocouple. This water is cooled by a 1 m long cupper serpentine plunged into the bath with cooling liquid flowing from and to a cryothermostat, the water bath itself is agitated with a magnetic bar stirrer. The internal volume of a 7 m long tubing of […] is about 22 mL. As this volume is 220 times smaller than the volume of the present water it is assumed that the water temperature remains within a 0.5° C. or smaller margin of the set temperature value.
This reduction in size has to be performed in order to increase the reigning Reynolds number inside the restriction at set flow rates and concentrations.
For example, in a series of tests, an identical total residence time inside the tubing of 5.3 s was respected. A solution of 200 mg/mL aspirin in 50 vol % ethanol/water was used; at different flow rates. This means that the total length of the tubing inside the water bath was varied according to the set flow rate in order to retain the 5.3 s residence time.

[2] = Maturing of acetylsalicylic acid crystals (growth treatment, early filtration); details: 3 m tubing, Tc 15° C., σ 4.5, 30 mL/min; for Sphere Equivalent Diameter: thickness set to ⅕ of width
Protocol: Obtaining different crystal sizes as end-product then depends on the time that is given to the crystals to mature further. […] To further proof the effect of early filtration (see table 10), the liquor of tests 43 and 44 were also directly filtered after exiting the tubing (test 49 and 50, respectively); the product of test 44 was also collected for 2 minutes and filtered afterwards (test 51).

[3] = Solubility temperature and spontaneous nucleation temperature of aspirin solution; details: 200 mg/mL in 50/50 vol % ethanol/water
Excerpt: (§1) The transition time is defined as the time necessary to reach crystallization conditions in the used setup (i.e. time for a fluid particle flowing in the liquid to get from undersaturated conditions to nucleation conditions). Therefore, this time is at a given concentration dominated by the difference in temperature between the solubility temperature and the metastable zone width or MSZW. At temperatures below this MSZW the solute in solution starts to nucleate spontaneously. […] (both measured). The transition time is then defined as the time needed to overcome this 20° C. difference in temperature.

[4] = Transient time and distance of aspirin solution in tubing; details: 200 mg/mL in ethanol/water 50/50 vol %, start 60° C., water bath 10° C.; for Transient distance: flow rate 30 mL/min
Excerpt: Two different capillaries of dimensions 1000 and 1500 μm inner diameter ID were used for a test using the setup of FIG. 1 in which the evolution of temperature inside the tubing was experimentally investigated at different distances.
as §1
As a consequence, for a 1500 μm inner diameter tubing, the total tubing length necessary to conduct crystallization is a multitude of the corresponding transient distance, making any workable application impossible: about 3.5 m are necessary to overcome the solubility time; 3.5 m to reach transient distance and approximately the 4 times the transient distance is necessary to increase sufficiently the induction time. The transient distance is defined as the distance the liquid is transferred during the transient time at a given flow rate.

[5] = Cooling crystallisation of acetylsalicylic acid in ethanol/water in capillary tubing
[6] = Maturing of acetylsalicylic acid crystals (growth treatment, early filtration); details: 3 m tubing
[7] = test 49: 200 mg/mL ethanol/water 50/50 vol %, restriction 1 of 250 μm ID, filtration At exit
[8] = test 50: 200 mg/mL ethanol/water 50/50 vol %, restriction 2 of 250 μm ID, filtration At exit
[9] = test 51: 200 mg/mL ethanol/water 50/50 vol %, restriction 2 of 250 μm ID, filtration After 120 s
[10] = 200 mg/mL 50 vol % ethanol/water, residence time 5.3 s, initial 65° C., bath 10° C., tubing ID 1000 μm, flow rate 20 mL/min, tubing length 2.5 m
[11] = test 40: 200 mg/mL ethanol/water 50/50 vol %, 3 m tubing, Tc 15° C., σ 4.5, 30 mL/min, restriction 0, average of 10 tests
[12] = test 41: 200 mg/mL ethanol/water 50/50 vol %, 3 m tubing, Tc 15° C., σ 4.5, 30 mL/min, restriction 1 of 500 μm ID, average of 10 tests
[13] = test 42: 200 mg/mL ethanol/water 50/50 vol %, 3 m tubing, Tc 15° C., σ 4.5, 30 mL/min, restriction 2 of 500 μm ID, average of 10 tests
[14] = test 43: 200 mg/mL ethanol/water 50/50 vol %, 3 m tubing, Tc 15° C., σ 4.5, 30 mL/min, restriction 1 of 250 μm ID, average of 10 tests
[15] = test 44: 200 mg/mL ethanol/water 50/50 vol %, 3 m tubing, Tc 15° C., σ 4.5, 30 mL/min, restriction 2 of 250 μm ID, average of 10 tests
[16] = test 45: 200 mg/mL ethanol/water 50/50 vol %, Tc 10° C., σ 6.7, 30 mL/min, no restrictions, Growth to equilibrium in tubing
[17] = test 46: 200 mg/mL ethanol/water 50/50 vol %, Tc 10° C., σ 6.7, 30 mL/min, no restrictions, filtration on 16 μm glass filter after 60 s
[18] = test 47: 200 mg/mL ethanol/water 50/50 vol %, Tc 10° C., σ 6.7, 30 mL/min, no restrictions, filtration on 16 μm glass filter after 90 s
[19] = test 48: 200 mg/mL ethanol/water 50/50 vol %, Tc 10° C., σ 6.7, 30 mL/min, no restrictions, Addition to saturated solution

CC(=O)Oc1ccccc1C(=O)O [Acetylsalicylic acid, acetylsalicylic acid]
Crystal length ([1]; tubing ID 750 μm, flow rate 20 mL/min, tubing length 4.2 m): 377 μm
Nucleation rate J ([1]; tubing ID 750 μm, flow rate 30 mL/min, tubing length 6.2 m): 170 000 mL^−1 · s−^1
Crystal length ([1]; tubing ID 1000 μm, flow rate 30 mL/min, tubing length 3.6 m): 495 μm
Crystal length ([1]; tubing ID 1000 μm, flow rate 40 mL/min, tubing length 4.7 m): 416 μm
Crystal length [2, 7]: 104 ± 55 μm
Crystal width [2, 7]: 28 ± 13 μm
Sphere Equivalent Diameter [2, 7]: 32 ± 7 μm
Crystal width [2, 8]: 23 ± 17 μm
Sphere Equivalent Diameter [2, 8]: 24 ± 8 μm
Crystal length [2, 9]: 155 ± 91 μm
Crystal width [2, 9]: 36 ± 17 μm
Solubility temperature [3]: 40 °C
Temperature at which spontaneous nucleation starts [3]: 20 °C
Transient time ([4]; tubing 1000 μm): 1 000 ms
Transient distance ([4]; tubing 1000 μm): 1.3 m
Transient time ([4]; tubing 1500 μm): 5 700 ms
Transient distance ([4]; tubing 1500 μm): 3.5 m
Nucleation rate J ([5]; 200 mg/mL 50 vol % ethanol/water, residence time 5.3 s, initial 65° C., bath 10° C., tubing ID 750 μm, flow rate 20 mL/min, tubing length 4.2 m): 50 000 mL^−1 · s−^1
Crystal length ([5]; 200 mg/mL 50 vol % ethanol/water, residence time 5.3 s, initial 65° C., bath 10° C., tubing ID 750 μm, flow rate 30 mL/min, tubing length 6.2 m): 285 μm
Crystal length [5, 10]: 1279 μm
Nucleation rate J [5, 10]: 1400 mL^−1 · s−^1
Nucleation rate J ([5]; 200 mg/mL 50 vol % ethanol/water, residence time 5.3 s, initial 65° C., bath 10° C., tubing ID 1000 μm, flow rate 30 mL/min, tubing length 3.6 m): 54 000 mL^−1 · s−^1
Nucleation rate J ([5]; 200 mg/mL 50 vol % ethanol/water, residence time 5.3 s, initial 65° C., bath 10° C., tubing ID 1000 μm, flow rate 40 mL/min, tubing length 4.7 m): 112 000 mL^−1 · s−^1
Crystal length ([5]; 200 mg/mL 50 vol % ethanol/water, residence time 5.3 s, initial 65° C., bath 10° C., tubing ID 1500 μm, flow rate 20 mL/min, tubing length 1.2 m): No crystallization observed
Crystal length ([5]; 200 mg/mL 50 vol % ethanol/water, residence time 5.3 s, initial 65° C., bath 10° C., tubing ID 1500 μm, flow rate 30 mL/min, tubing length 1.7 m): No crystallization observed
Crystal length ([5]; 200 mg/mL 50 vol % ethanol/water, residence time 5.3 s, initial 65° C., bath 10° C., tubing ID 1500 μm, flow rate 40 mL/min, tubing length 2.2 m): No crystallization observed
Crystal length ([5]; test 34: 300 mg/mL ethanol-water, Tc 15° C., σ 27, Q 30 mL/min, tubing length 7 m, diameter 500 μm, 4 restrictions 1 mm long, 500 μm): Tube blocked
Crystal length ([5]; test 35: 300 mg/mL ethanol-water, Tc 10° C., σ 27, Q 30 mL/min, tubing length 6 m, diameter 750 μm, 4 restrictions 1 mm long, 500 μm): Tube blocked
Crystal length ([5]; test 36: 300 mg/mL ethanol-water, Tc 10° C., σ 27, Q 30 mL/min, tubing length 5 m, diameter 500 μm, 4 restrictions 1 mm long, 500 μm): Tube blocked
Crystal length ([5]; test 37: 300 mg/mL ethanol-water, Tc 10° C., σ 27, Q 30 mL/min, tubing length 3 m, diameter 500 μm, 4 restrictions 1 mm long, 500 μm): 800 ± 68 μm
Crystal length ([5]; test 38: 300 mg/mL ethanol-water, Tc 10° C., σ 27, Q 30 mL/min, tubing length 3 m, diameter 500 μm, 4 restrictions 1 mm long, 500 μm): 820 ± 80 μm
Crystal length ([5]; test 39: 300 mg/mL ethanol-water, Tc 10° C., σ 27, Q 30 mL/min, tubing length 3 m, diameter 500 μm, 4 restrictions 1 mm long, 500 μm): 795 ± 73 μm
Crystal length [5, 11]: 1319 ± 167 μm
Nucleation rate [5, 11]: 2300 mL⁻¹ s⁻¹
Sphere Equivalent Diameter [5, 11]: 449 ± 74 μm
Crystal length [5, 12]: 1398 ± 100 μm
Nucleation rate [5, 12]: 1900 mL⁻¹ s⁻¹
Sphere Equivalent Diameter [5, 12]: 490 ± 85 μm
Crystal length [5, 13]: 1049 ± 179 μm
Nucleation rate [5, 13]: 3700 mL⁻¹ s⁻¹
Sphere Equivalent Diameter [5, 13]: 348 ± 104 μm
Crystal length [5, 14]: 962 ± 82 μm
Nucleation rate [5, 14]: 5300 mL⁻¹ s⁻¹
Sphere Equivalent Diameter [5, 14]: 328 ± 31 μm
Crystal length [5, 15]: 393 ± 35 μm
Nucleation rate [5, 15]: 130 000 mL^−1 · s^−1
Sphere Equivalent Diameter [5, 15]: 117 ± 20 μm
Crystal depth as fraction of the width ([5]; tests 43 and 44 (250 μm inner diameter restrictions), 200 mg/mL ethanol/water 50/50): about ⅕
Crystal length [6, 16]: 500 ± 230 μm
Crystal width [6, 16]: 69 ± 27 μm
Crystal length [6, 17]: 359 ± 190 μm
Crystal width [6, 17]: 66 ± 35 μm
Crystal length [6, 18]: 646 ± 391 μm
Crystal width [6, 18]: 38 ± 23 μm
Crystal length [6, 19]: 172 ± 66 μm
Crystal width [6, 19]: 38 ± 13 μm
Crystal length ([6]; test 50: 200 mg/mL ethanol/water 50/50 vol %, Tc 15° C., σ 4.5, 30 mL/min, restriction 2 of 250 μm ID, filtration At exit): 63 ± 36 μm
Sphere Equivalent Diameter ([6]; test 51: 200 mg/mL ethanol/water 50/50 vol %, Tc 15° C., σ 4.5, 30 mL/min, restriction 2 of 250 μm ID, filtration After 120 s, thickness set to ⅕ of width): 42 ± 11 μm
